Measurements taken from PubChem BioAssay (NCI).
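Results reflect a 48-hour exposure of cells in 96-well plates to compound at five concentrations. GI50: concentration for 50% inhibition of growth. TGI denotes the concentration required for complete inhibition of growth.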

Key:
Assay in all cases: DTP human tumour cell line panel, 48 h
[1] = test system: ACHN renal
[2] = test system: COLO 205 colon
[3] = test system: M14 melanoma
[4] = test system: NCI-H460 lung
[5] = test system: SF-539 CNS
[6] = test system: SN12C renal
[7] = test system: SNB-19 CNS
[8] = test system: SW-620 colon
[9] = test system: SNB-75 CNS

For O=C(O)c1ccc(Nc2nc3nn(Cc4ccccc4)cc3c(=O)s2)cc1, the TGI [1] was greater than 100 µM, the TGI [2] was greater than 100 µM and the TGI [3] was greater than 100 µM. It also gave a TGI [4] greater than 100 µM, a TGI [5] greater than 100 µM and a TGI [6] greater than 100 µM. It also gave a TGI [7] greater than 100 µM and a TGI [8] greater than 100 µM.
O=[N+]([O-])C(C(Cl)=C(Cl)Cl)=C(n1cncn1)n1cncn1 gave a TGI [1] of 37.5 µM, a TGI [2] of 26.7 µM and a TGI [3] greater than 74.8 µM. The TGI [4] was greater than 100 µM, the TGI [5] was 41.2 µM and the TGI [6] was 26.9 µM. The TGI [7] was greater than 100 µM, the TGI [9] was greater than 65.3 µM and the TGI [8] was 43.1 µM.
CCCCCCCCCC(=O)NC(Cc1ccc(O)cc1)C(=O)NCCCNCCCCNCCCNC(=O)[C@@H](N)CCCN=C(N)N (stereo partly specified) gave a TGI [1] of 67 µM, a TGI [2] of 34.5 µM and a TGI [3] greater than 100 µM. For the same molecule, the TGI [4] was greater than 100 µM, the TGI [5] was 26.8 µM and the TGI [6] was greater than 100 µM. It also gave a TGI [7] greater than 100 µM and a TGI [8] greater than 100 µM.
For Cc1nc(Nc2ccc(Cl)c(Cl)c2)sc1C(=O)/C=C/c1ccc2c(c1)OCO2, the TGI [1] was 45.1 µM, the TGI [2] was 60.6 µM and the TGI [4] was greater than 100 µM. The TGI [5] was 61.7 µM, the TGI [7] was 51.9 µM and the TGI [9] was 31.4 µM. The TGI [8] was greater than 100 µM.
Cc1ccc(C2C(Cl)C(=O)N2NC(=O)c2ccc(N)cc2)cc1 (stereo unspecified) gave a TGI [1] greater than 100 µM, a TGI [2] of 44.6 µM and a TGI [3] of 36.6 µM. The TGI [4] was 35.5 µM, the TGI [5] was 41.6 µM and the TGI [6] was 52.2 µM. It also gave a TGI [7] of 33.5 µM, a TGI [9] greater than 100 µM and a TGI [8] of 41.3 µM.
Work on CC(=O)NC1=C(N)C(=O)c2ccccc2C1=O yielded a TGI [1] greater than 100 µM, a TGI [2] of 80.6 µM and a TGI [3] greater than 100 µM. The TGI [4] was 40.6 µM, the TGI [5] was greater than 100 µM and the TGI [6] was greater than 100 µM. It also gave a TGI [7] greater than 100 µM, a TGI [9] greater than 100 µM and a TGI [8] of 29.2 µM.
OC12CCC3(O)c4ccccc4C3C1c1ccccc12 (stereo unspecified) was tested, and the TGI [1] was greater than 100 µM, the TGI [2] was greater than 100 µM and the TGI [3] was greater than 100 µM. The TGI [4] was greater than 100 µM, the TGI [6] was greater than 100 µM and the TGI [7] was greater than 100 µM. The TGI [9] was greater than 100 µM and the TGI [8] was greater than 100 µM.
For CC(=O)O[C@H]1C(=O)[C@@]2(C)[C@H]([C@H](OC(=O)c3ccccc3)[C@]3(O)C[C@H](OC(=O)[C@H](O)[C@@H](NC(=O)c4ccc(N(C)C)cc4)c4ccccc4)C(C)=C1C3(C)C)[C@]1(OC(C)=O)CO[C@@H]1C[C@@H]2O, the TGI [1] was greater than 50 µM, the TGI [3] was greater than 50 µM and the TGI [6] was greater than 50 µM. For the same molecule, the TGI [7] was greater than 50 µM, the TGI [9] was greater than 50 µM and the TGI [8] was greater than 50 µM.
With OC12c3ccccc3C1CCCCCC21OCCCO1 (stereo unspecified) the TGI [1] was greater than 100 µM, the TGI [2] was greater than 100 µM and the TGI [3] was greater than 100 µM. For the same molecule, the TGI [4] was greater than 100 µM, the TGI [5] was greater than 100 µM and the TGI [6] was greater than 100 µM. The TGI [7] was greater than 100 µM, the TGI [9] was greater than 100 µM and the TGI [8] was greater than 100 µM.
COc1ccccc1C1C(C#N)=C(N)Oc2cc(O)ccc21 (stereo unspecified) gave a GI50 [1] of 22.3 µM, a TGI [1] of 84 µM and a GI50 [2] of 15.8 µM. For the same molecule, the TGI [2] was 36.6 µM, the GI50 [3] was 13.4 µM and the TGI [3] was 35 µM. For the same molecule, the GI50 [4] was 20 µM, the TGI [4] was 58.8 µM and the GI50 [5] was 24.7 µM. The TGI [5] was 66 µM, the GI50 [6] was 11.6 µM and the TGI [6] was 31.1 µM. It also gave a GI50 [7] of 21.3 µM, a TGI [7] of 99.8 µM and a GI50 [9] of 23 µM. It also gave a TGI [9] of 56.4 µM, a GI50 [8] of 29.1 µM and a TGI [8] greater than 100 µM.
Molecule O=C(c1ccco1)N(C(=S)N1CCN(c2ccccn2)CC1)c1ccccc1 has a TGI [1] greater than 100 µM, a TGI [2] greater than 100 µM and a TGI [3] greater than 100 µM. It also gave a TGI [4] greater than 100 µM, a TGI [5] greater than 100 µM and a TGI [6] greater than 100 µM. It also gave a TGI [7] greater than 100 µM, a TGI [9] greater than 100 µM and a TGI [8] greater than 100 µM.
Molecule C=CCn1c(=N)/c(=C(\N)O)s/c1=C1/SC(=S)N(c2ccc(C)cc2)C1=O has a TGI [1] greater than 100 µM, a TGI [2] greater than 100 µM and a TGI [4] greater than 100 µM. The TGI [5] was greater than 100 µM, the TGI [7] was greater than 100 µM and the TGI [9] was 44.6 µM. The TGI [8] was greater than 100 µM.
Work on CCn1c(CSc2nc(-c3ccccc3)c(-c3ccccc3)[nH]2)n[nH]c1=S yielded a TGI [1] greater than 100 µM, a TGI [2] greater than 100 µM and a TGI [3] greater than 100 µM. It also gave a TGI [4] greater than 100 µM, a TGI [5] greater than 100 µM and a TGI [6] greater than 100 µM. The TGI [7] was greater than 100 µM and the TGI [9] was greater than 100 µM.
CC[n+]1c(/C=C/c2ccc(N(CCCl)CCCl)cc2)ccc2cc(I)ccc21 gave a TGI [1] of 9.37 µM, a TGI [4] of 10.1 µM and a TGI [5] of 2.4 µM. The TGI [6] was 2.71 µM, the TGI [7] was 2.35 µM and the TGI [9] was 0.903 µM. The TGI [8] was 6.96 µM.
Molecule C/C(O[Si](C(C)C)(C(C)C)C(C)C)=C(\C)C(=O)N(C)c1ccccc1Cl has a TGI [1] greater than 100 µM, a TGI [2] greater than 100 µM and a TGI [3] greater than 100 µM. The TGI [4] was greater than 100 µM, the TGI [5] was greater than 100 µM and the TGI [6] was greater than 100 µM. The TGI [7] was greater than 100 µM, the TGI [9] was greater than 100 µM and the TGI [8] was greater than 100 µM.
In the case of NS(=O)(=O)c1nnc(NS(=O)(=O)c2ccc([N+](=O)[O-])cc2)s1, the TGI [1] is reported as greater than 100 µM, the TGI [2] is reported as greater than 100 µM and the TGI [3] is reported as greater than 100 µM. It also gave a TGI [4] greater than 100 µM, a TGI [5] greater than 100 µM and a TGI [9] greater than 100 µM. For the same molecule, the TGI [8] was greater than 100 µM.
With NC(N)=N/N=C/c1c(-c2cc([N+](=O)[O-])c(Cl)cc2Cl)nc2n1CCS2 the TGI [1] was greater than 100 µM, the TGI [3] was greater than 100 µM and the TGI [4] was greater than 100 µM. The TGI [5] was greater than 100 µM, the TGI [6] was greater than 100 µM and the TGI [7] was 16.5 µM. For the same molecule, the TGI [8] was greater than 100 µM.
COc1ccc(/C(Cl)=C(\C=O)c2ccc(Cl)cc2)cc1OC was tested, and the TGI [1] was 13.1 µM, the TGI [2] was 13.2 µM and the TGI [3] was 97.3 µM. For the same molecule, the TGI [4] was greater than 100 µM, the TGI [6] was 16.6 µM and the TGI [7] was greater than 100 µM. The TGI [9] was 11.5 µM and the TGI [8] was 15.4 µM.
Work on O/N=C\C(=Nc1ccc(Cc2ccc(N=C(/C=N\O)NO)cc2)cc1)NO yielded a TGI [1] greater than 100 µM, a TGI [2] greater than 100 µM and a TGI [3] greater than 100 µM. The TGI [4] was greater than 100 µM, the TGI [5] was greater than 100 µM and the TGI [6] was greater than 100 µM. The TGI [7] was greater than 100 µM and the TGI [8] was greater than 100 µM.
